# Experimental data taken from US20250170224A1, “METHODS AND COMPOSITIONS FOR TREATING MICROGLIAL DYSFUNCTION AND IMPROVING METABOLIC DYSFUNCTION” (Ultimate Medicine AG, priority 2021, published 2025).
# B1: IAP: intestinal alkaline phosphatase, an endogenous enhancer of the gut barrier function (exemplary CAS No. 9001-78-9 (calf)) (protein, UniProt P19111 20-506, looked up)
# Intestinal-type alkaline …: LVPVEEEDPAFWNRQAAQALDVAKKLQPIQTAAKNVILFLGDGMGVPTVTATRILKGQMNGKLGPETPLAMDQFPYVALSKTYNVDRQVPDSAGTATAYLCGVKGNYRTIGVSAAARYNQCKTTRGNEVTSVMNRAKKAGKSVGVVTTTRVQHASPAGAYAHTVNRNWYSDADLPADAQMNGCQDIAAQLVNNMDIDVILGGGRKYMFPVGTPDPEYPDDASVNGVRKRKQNLVQAWQAKHQGAQYVWNRTALLQAADDSSVTHLMGLFEPADMKYNVQQDHTKDPTLQEMTEVALRVVSRNPRGFYLFVEGGRIDHGHHDDKAYMALTEAGMFDNAIAKANELTSELDTLILVTADHSHVFSFGGYTLRGTSIFGLAPSKALDSKSYTSILYGNGPGYALGGGSRPDVNDSTSEDPSYQQQAAVPQASETHGGEDVAVFARGPQAHLVHGVEEETFVAHIMAFAGCVEPYTDCNLPAPTTATSIPD
# How the values were obtained:
# [1] = healthy subjects; ingested lactulose 5 grams, mannitol 1 gram; cited from earlier work
# gut barrier / microglia = assay: Aged SPF mice (18 months old) treated orally every third day for 10 weeks with EA or IAP; assay type: in vivo, mouse (C57BL/6); conditions: for ATP levels in microglia / cellular ROS in microglia (CellROX): compared to vehicle-treated aged mice; for CML accumulation in the brain (LC-MS) / gut permeability (FITC-dextran 4 kDa translocation to the circulation): oral, every 3 days for 10 weeks
# Procedure: (§1) Specific pathogen-free (SPF) and germ-free (GF) housed C57BL/6 mice were analyzed at 6-10 weeks of age (young-adult) and 96-104 weeks of age (aged). Mice of the aged group in the nontargeted metabolomics analysis were 17-18 months old. Except for nontargeted metabolomics and microbiota profiling, where only male mice were used, all groups included mice from both sexes. Mice were housed under a 12-hour light/12-hour dark cycle and temperatures of 18-23° C. with 40-60% humidity, with food and water given ad libitum. To avoid cage effects, mice from at least three different cages per experimental group were analyzed. For the treatment, young-adult mice (8 weeks old) were injected intraperitoneally or by oral gavage with CML (0.735 mg kg^−1; Iris Biotech), trimethylamine N-oxide (TMAO) (3.95 mg kg^−1; Sigma-Aldrich), sodium acetate (59 mg kg^−1; Sigma-Aldrich) and sodium propionate (4.61 mg kg^−1; Sigma-Aldrich) daily for 14 days. For modulation of CML in aged animals, 18-month-old SPF housed C57BL/6 mice were treated orally every third day for 10 weeks with vehicle (20% hydroxypropyl-p-cyclodextrin in 1× phosphate-buffered saline (PBS)), 10 mg kg^−1 ellagic acid (EA) or 3,000 U kg^−1 intestinal alkaline phosphatase (IAP). To assess in vivo intestinal permeability, tracer fluorescein isothiocyanate (FITC)-labeled dextran (4 kDa: Sigma-Aldrich) was used. Briefly, mice were deprived of food 4 hours before and both food and water 4 hours after oral gavage using 200 μl of 80 mg ml^−1 FITC-dextran. Blood was collected retro-orbitally after 4 hours and fluorescence intensity was measured on fluorescence plates using an excitation wavelength of 493 nm and an emission wavelength of 518 nm. To assess in vivo intestinal permeability to CML, mice were treated with […] CML (0.36 mM). Blood was collected retro-orbitally immediately before and 4 hours after treatment. CML translocated into the circulation was measured by liquid chromatography-mass spectrometry (LC-MS). All animal experiments were approved by the local administration in Germany (Regierungsprasidium Freiburg) and were performed in accordance with the respective national, federal, and institutional regulations and the guidelines of the Federation of European Laboratory Animal Science Associations.
# Cell sorting for RT-qPCR and RNA sequencing (RNA-seq) was performed on a MoFlo Astrios (Beckman Coulter; FIG. 7a). Before surface staining, dead cells were excluded by using the Fixable Viability Dye eFluor 780 (1:1,000 dilution; Thermo Fisher Scientific) followed by incubation with Fc receptor blocking antibody CD16/CD32 (1:200 dilution, clone 2.4G2; BD Bioscience). The following antibodies were used for surface staining: anti-CD45 (1:200 dilution, clone 30-F11; Thermo Fisher Scientific); anti-CD11b (1:200 dilution, clone MI/70; Thermo Fisher Scientific). The following lineage antibodies were used (all at 1:300 dilution): anti-CD3 (clone 17A2; BioLegend); anti-CD19 (clone 6D5; BioLegend); anti-CD45R (clone RA3-6B2; BD Biosciences); Ly6C (clone AL-21; BD Biosciences); Ly6G (clone 1A8; BD Biosciences). To assess microglial cellular reactive oxidative species (ROS), the CellROX DeepRed Reagent ([…]; Thermo Fisher Scientific) was used. To assess mitochondrial activity, Tetramethylrhodamine, Methyl Ester, Perchlorate (50 nM; Thermo Fisher Scientific) and MitoTracker Green FM (20 nM; Thermo Fisher Scientific) were used. Dead cells were excluded by short incubation with DAPI before flow cytometry analysis with the FACSCanto II (BD Biosciences). Data were acquired with the FACSDiva v.6 software (Becton Dickinson). Postacquisition analysis was performed with FlowJo v.10 (FlowJo LLC).
# To avoid the cellular stress of fluorescence-activated cell sorting (FACS), microglial cells were isolated using the magnetic-activated cell sorting (MACS) separation system (Miltenyi Biotec; FIG. 7b). […]
# microglia = assay type: in vivo; conditions: young-adult mice, i.p. once per day for two weeks; for intracellular ROS production / oxidative stress in microglia: CellROX
# Procedure: as §1, with “Mice” for “Specific pathogen-free (SPF) and germ-free (GF) housed C57BL/6 mice were analyzed at 6-10 weeks of age (young-adult) and 96-104 weeks of age (aged). Mice”, “For the treatment, young-adult mice (8 weeks old) were injected intraperitoneally or by oral gavage with CML (0.735 mg kg^−1; Iris Biotech), trimethylamine N-oxide (TMAO) (3.95 mg kg^−1; Sigma-Aldrich), sodium acetate (59 mg kg^−1; Sigma-Aldrich) and sodium propionate (4.61 mg kg^−1; Sigma-Aldrich) daily for 14 days.” left out
# Mice were lethally anesthetized with ketamine (100 mg kg^−1 body weight) and xylazine (10 mg kg^−1 body weight) followed by perfusion with 1×PBS through the left heart chamber. For histology, brains were kept overnight in 4% paraformaldehyde (PFA). For flow cytometry and magnetic-activated cell sorting (MACS) beads cell sorting, brains were dissected, homogenized and filtered through a […] mesh. […] Myelin was removed from the top layer and the cell pellet was washed once with 1×PBS followed by antibody staining.
# Brain specimens from the cortex were first fixed overnight in 3% glutaraldehyde at 4° C., washed with Sorensen buffer, and then transferred to 1% osmium tetroxide for 2 hours at room temperature. Next, samples were dehydrated by a graded series of ethanol (30-100%) followed by 100% propylene oxide, resin/propylene oxide (1:2 (v/v)) and resin/propylene oxide (2:1 (v/v)). Samples were embedded in resin via polymerization for 24 hours at 75° C. Then, 700-nm semithin sections were cut and stained with 2% toluidine blue to define the region of interest for further preparation of 70 nm ultrathin sections using an ultramicrotome (Leica Reichert Ultracut S) after contrasting the sections with uranyl acetate and lead citrate (Leica Reichert Ultrastainer). To assess the mitochondrial phenotype in microglia, images were acquired with a ×7,900 or ×46,000 magnification using a CM100 electron microscope (Philips).
# Cell sorting for RT-qPCR and RNA sequencing (RNA-seq) was performed on a MoFlo Astrios (Beckman Coulter; FIG. 7a). Before surface staining, dead cells were excluded by using the Fixable Viability Dye eFluor 780 (1:1,000 dilution; Thermo Fisher Scientific) followed by incubation with Fc receptor blocking antibody CD16/CD32 (1:200 dilution, clone 2.4G2; BD Bioscience). […] To assess microglial cellular reactive oxidative species (ROS), the CellROX DeepRed Reagent ([…]; Thermo Fisher Scientific) was used. To assess mitochondrial activity, Tetramethylrhodamine, Methyl Ester, Perchlorate (50 nM; Thermo Fisher Scientific) and MitoTracker Green FM (20 nM; Thermo Fisher Scientific) were used.
molecule,measurement,setting,value
OC[C@@H](O)[C@@H](O)[C@H](O)[C@H](O)CO [mannitol],normal value of excretion in urine (percentage of ingested amount),[1],~12.3%
"O=c1oc2c(O)c(O)cc3c(=O)oc4c(O)c(O)cc1c4c23 [EA, ellagic acid]",ATP levels in microglia,gut barrier / microglia,increased ATP levels
same,cellular ROS in microglia (CellROX),gut barrier / microglia,significant reduction
same,CML accumulation in the brain (LC-MS),gut barrier / microglia,reduced
same,gut permeability (FITC-dextran 4 kDa translocation to the circulation),gut barrier / microglia,no direct effect
CC(=O)[O-].[Na+] [sodium acetate],metabolic function (metabolic/mitochondrial activity) of microglia,microglia,no effect
same,intracellular ROS production / oxidative stress in microglia,microglia,no effect
OC[C@H]1O[C@@H](O[C@@H]2[C@@H](CO)OC(O)(CO)[C@H]2O)[C@H](O)[C@@H](O)[C@H]1O (mixture of isomers) [lactulose],normal value of excretion in urine (percentage of ingested amount),[1],about 0.35%
"C[N+](C)(C)[O-] [TMAO, trimethylamine N-oxide]",metabolic function (metabolic/mitochondrial activity) of microglia,microglia,no effect
same,intracellular ROS production / oxidative stress in microglia,microglia,no effect
CCC(=O)[O-].[Na+] [sodium propionate],metabolic function (metabolic/mitochondrial activity) of microglia,microglia,no effect
same,intracellular ROS production / oxidative stress in microglia,microglia,no effect
B1,ATP levels in microglia,gut barrier / microglia,increased ATP levels
same,cellular ROS in microglia (CellROX),gut barrier / microglia,significant reduction
same,CML accumulation in the brain (LC-MS),gut barrier / microglia,reduced
same,gut permeability (FITC-dextran 4 kDa translocation to the circulation),gut barrier / microglia,lower gut leakiness
